{"source": "patent US6756428B2", "about": "“Degradable plastics possessing a microbe-inhibiting quality” (Seefar Technologies, Incorporated, priority 1999, dated 2004)", "origin": "cited, not measured here", "key": {"[1]": {"test_system": "fungus Aspergillus niger"}, "[2]": {"test_system": "Staphylococcus aureus bacteria"}, "[3]": {"test_system": "Pseudomonas aeruginosa bacteria", "conditions": "bacterium P aeruginosa"}, "[4]": {"test_system": "dogs"}}, "note": "Like-named read-outs stand apart in the source and are kept apart here."}
{"smiles": "Cc1ccc(S(=O)(=O)C(I)I)cc1", "note": "[DIMTS, diiodomethyl-p-tolylsulphone]", "values": [{"measurement": "solubility in acetone", "setting": "acetone, 25° C.", "value": 350, "unit": "mg/mL"}, {"measurement": "solubility in ethanol", "setting": "25° C.", "value": 20, "unit": "mg/mL"}, {"measurement": "solubility in water", "setting": "25° C.", "value": 0.0001, "unit": "mg/mL"}, {"measurement": "MIC", "setting": "[1]; against the fungus Aspergillus niger", "value": "about 5 mg/L"}, {"measurement": "MIC", "setting": "[2]; against Staphylococcus aureus bacteria", "value": "about 50 mg/L"}]}
{"smiles": "Oc1cc(Cl)ccc1Oc1ccc(Cl)cc1Cl", "note": "[triclosan, 2,4,4″-trichloro-2-hydroxydiphenylether]", "values": [{"measurement": "MIC", "setting": "[3]", "value": "about 100 ppm"}, {"measurement": "solubility in dilute alkali solution", "setting": "dilute alkali solution", "value": "sparingly soluble"}, {"measurement": "solubility in ethanol", "value": "soluble"}, {"measurement": "solubility in water", "value": "insoluble"}, {"measurement": "MIC", "setting": "[1]; against A. niger", "value": "about 100 ppm"}, {"measurement": "LD50 oral toxicity", "setting": "[4]", "value": "> 5000", "unit": "mg/kg"}, {"measurement": "MIC", "setting": "[2]; against S. aureus", "value": "about 0.01 ppm"}]}
